This passage reports IC50 results from patent US12428420B2, “Tricyclic heterocycles as FGFR inhibitors” (Incyte Corporation, priority 2021, dated 2025).

Test [1] addresses wild-type un-phosphorylated FGFR3 protein (Homo sapiens, UniProt P22607). The experiment in a line: FGFR Enzymatic Assay (FRET peptide phosphorylation). Type of test: biochemical. The settings on record: pre-incubated for 4 hours.
Method: The inhibitor potency of the exemplified compounds was determined in an enzyme discontinuous assay that measures peptide phosphorylation using FRET measurements to detect product formation. Inhibitors were serially diluted in DMSO and a volume of 0.2 μL was transferred to the wells of a 384-well plate. A 5 μL/well volume of enzyme isoforms of FGFR (-1, -2, -3 wild-type and mutant isoforms, -4) including phosphorylated and un-phosphorylated proteins diluted in assay buffer (50 mM HEPES, 10 mM MgCl2, 1 mM EGTA, 0.01% Tween-20, 5 mM DTT, pH 7.5) was added to the plate and pre-incubated with inhibitor for 5 to 15 minutes at ambient temperature. Appropriate controls (enzyme blank and enzyme with no inhibitor) were included on the plate. The reaction was initiated by the addition of a 5 μL/well volume containing both biotinylated [sequence] peptide substrate (SEQ ID NO: 1) and ATP in assay buffer. The 10 μL/well reaction concentration of the peptide substrate was 500 nM whereas the ATP concentration was maintained near or below the ATP Km. The ATP Km values were pre-determined in a separate series of experiments. The reaction plate was incubated at 25° C. for 1 hr and the reactions were ended with the addition of 5 μL/well of quench solution (50 mM Tris, 150 mM NaCl, 0.5 mg/mL BSA, pH 7.8; 45 mM EDTA, 600 nM staurosporin, with Perkin Elmer Lance Reagents at 3.75 nM Eu-antibody PY20 and 180 nM APC-Streptavidin). The plate was allowed to equilibrate for ˜10 minutes at ambient temperature before scanning on a PheraStar plate reader (BMG Labtech) instrument.
Either GraphPad prism or XLfit was used to analyze the data. The IC50 values were derived by fitting the data to a four parameter logistic equation producing a sigmoidal dose-response curve with a variable Hill coefficient. Prism equation: Y=Bottom+(Top−Bottom)/(1+10^((Log IC50−X)*Hill slope)); XLfit equation: Y=(A+((B−A)/(1+((X/C)^D)))) where X is the logarithm of inhibitor concentration and Y is the response.
Test [2] has as its system RT-112/84 cell line. Kind of test: Luminescent Viability Assay (CellTiter-Glo). The settings on record: Homo sapiens, RT112/84, 72 h, RT-112/84 cell line (bladder, FGFR3-TACC3); 3 days. Type of test: cell-based. How it is done:
RT112 cells (cell lines and genetic profiles further detailed in Table 2) were purchased from ATCC (Manassas, VA) and maintained in RPMI, 10% FBS (Gibco/Life Technologies). To measure the effect of test compounds on the viability of cells, the cells were plated with RPMI 10% FBS (5×10^3 cells/well/in 50 μL) into black 96-well Greiner polystyrene in the presence or absence of 50 μL of a concentration range of test compounds. After 3 days, 100 μL of CellTiter-Glo Reagent (Promega) was added. Luminescence was read with a TopCount (PerkinElmer). IC50 determination was performed by fitting the curve of percent inhibition versus the log of the inhibitor concentration using the GraphPad Prism 5.0 software.
On the technique in general: In ATP-based viability assays light output follows the ATP content of the culture.

Chain of wild-type un-phosphorylated FGFR3 protein (P22607 23-806): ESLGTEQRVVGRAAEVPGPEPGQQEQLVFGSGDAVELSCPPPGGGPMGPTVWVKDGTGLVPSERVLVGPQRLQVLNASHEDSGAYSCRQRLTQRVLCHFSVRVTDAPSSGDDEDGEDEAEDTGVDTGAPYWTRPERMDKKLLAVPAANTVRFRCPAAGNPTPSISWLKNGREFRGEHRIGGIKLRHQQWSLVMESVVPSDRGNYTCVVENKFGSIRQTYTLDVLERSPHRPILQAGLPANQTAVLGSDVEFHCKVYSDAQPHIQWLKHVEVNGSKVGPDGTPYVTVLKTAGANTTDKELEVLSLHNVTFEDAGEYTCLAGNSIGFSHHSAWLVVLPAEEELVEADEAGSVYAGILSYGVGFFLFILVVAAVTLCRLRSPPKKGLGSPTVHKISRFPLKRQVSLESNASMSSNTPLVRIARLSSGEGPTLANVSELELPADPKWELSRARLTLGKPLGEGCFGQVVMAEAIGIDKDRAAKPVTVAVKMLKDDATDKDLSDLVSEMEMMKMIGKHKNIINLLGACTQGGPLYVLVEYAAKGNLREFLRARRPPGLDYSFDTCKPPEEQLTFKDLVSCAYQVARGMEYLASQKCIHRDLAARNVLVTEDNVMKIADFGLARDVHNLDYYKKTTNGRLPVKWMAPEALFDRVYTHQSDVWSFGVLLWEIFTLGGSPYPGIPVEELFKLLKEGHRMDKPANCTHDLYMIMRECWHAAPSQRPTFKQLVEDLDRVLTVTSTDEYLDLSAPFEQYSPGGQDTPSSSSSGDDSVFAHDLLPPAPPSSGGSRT

On to `C[C@H](CO)n1cc(-c2cnc3ccn4c(CO)c(-c5c(Cl)cccc5Cl)nc4c3c2)cn1` [Example 24, (R)-2-(4-(2-(2,6-Dichlorophenyl)-3-(hydroxymethyl)imidazo[2,1-f][1,6]naphthyridin-9-yl)-1H-pyrazol-1-yl)propan-1-ol], for which the values for the IC50 in test [1] and in test [2] were 1 to 5 nM and 10 to 50 nM, respectively.

With `OCc1c(-c2c(Cl)cccc2Cl)nc2c3cc(-c4cnn(CC5(F)CCOCC5)c4)cnc3ccn12` [Example 25, (2-(2,6-Dichlorophenyl)-9-(1-((4-fluorotetrahydro-2H-pyran-4-yl)methyl)-1H-pyrazol-4-yl)imidazo[2,1-J][1,6]naphthyridin-3-yl)methanol], the IC50 – broadly, the concentration that gives 50% inhibition – in test [1] is under 1 nM; in test [2], under 10 nM.

For `COCC(=O)N1CC(Cn2cc(-c3cnc4ccn5c(CO)c(-c6c(Cl)cccc6Cl)nc5c4c3)cn2)C1` [Example 27, 1-(3-((4-(2-(2,6-Dichlorophenyl)-3-(hydroxymethyl)imidazo[2,1-f][1,6]naphthyridin-9-yl)-1H-pyrazol-1-yl)methyl)azetidin-1-yl)-2-methoxyethan-1-one], the IC50 lay in the range of 1 to 5 nM in test [1] and 10 to 50 nM in test [2].

Take `CS(=O)(=O)CCn1cc(-c2cnc3ccn4c(C(F)F)c(-c5c(Cl)cccc5Cl)nc4c3c2)cn1` [Example 28, 2-(2,6-Dichlorophenyl)-3-(difluoromethyl)-9-(1-(2-(methylsulfonyl)ethyl)-1H-pyrazol-4-yl)imidazo[2,1-f][1,6]naphthyridine]: the IC50 in test [1] is under 1 nM; in test [2], under 10 nM.

As to `N#CCn1cc(-c2cnc3ccn4c(C(F)F)c(-c5c(Cl)cccc5Cl)nc4c3c2)cn1` [Example 29, 2-(4-(2-(2,6-Dichlorophenyl)-3-(difluoromethyl)imidazo[2,1-f][1,6]naphthyridin-9-yl)-1H-pyrazol-1-yl)acetonitrile], the results for the IC50 in test [1] and in test [2] were under 1 nM and under 10 nM, respectively.

As for `FC(F)c1c(-c2c(Cl)cccc2Cl)nc2c3cc(-c4cnn(C5CCOCC5)c4)cnc3ccn12` [Example 30, 2-(2,6-Dichlorophenyl)-3-(difluoromethyl)-9-(1-(tetrahydro-2H-pyran-4-yl)-1H-pyrazol-4-yl)imidazo[2,1-J][1,6]naphthyridine], the IC50 in test [1] was under 1 nM; in test [2], under 10 nM.

As to `OCCn1cc(-c2cnc3ccn4c(C(F)F)c(-c5c(Cl)cccc5Cl)nc4c3c2)cn1` [Example 31, 2-(4-(2-(2,6-Dichlorophenyl)-3-(difluoromethyl)imidazo[2,1-f][1,6]naphthyridin-9-yl)-1H-pyrazol-1-yl)ethan-1-ol], the IC50 in test [1] is under 1 nM; in test [2], under 10 nM.

For the compound `CC(C#N)n1cc(-c2cnc3ccn4c(C(F)F)c(-c5c(Cl)cccc5Cl)nc4c3c2)cn1` (stereo not shown) [Example 32, 2-(4-(2-(2,6-Dichlorophenyl)-3-(difluoromethyl)imidazo[2,1-f][1,6]naphthyridin-9-yl)-1H-pyrazol-1-yl)propanenitrile], the IC50 is under 1 nM in test [1] and under 10 nM in test [2].

`CC(C)(C(N)=O)n1cc(-c2cnc3ccn4c(C(F)F)c(-c5c(Cl)cccc5Cl)nc4c3c2)cn1` [Example 33, 2-(4-(2-(2,6-Dichlorophenyl)-3-(difluoromethyl)imidazo[2,1-f][1,6]naphthyridin-9-yl)-1H-pyrazol-1-yl)-2-methylpropanamide]: the results for the IC50 in test [1] and in test [2] were under 1 nM and under 10 nM, respectively.

Consider `CN1CCC(n2cc(-c3cnc4ccn5c(CCO)c(-c6c(Cl)cccc6Cl)nc5c4c3)cn2)CC1` [Example 34, 2-(2-(2,6-Dichlorophenyl)-9-(1-(1-methylpiperidin-4-yl)-1H-pyrazol-4-yl)imidazo[2,1-f][1,6]naphthyridin-3-yl)ethan-1-ol], for which the IC50 was 1 to 5 nM in test [1] and 10 to 50 nM in test [2].

`Nc1c(-c2c(Cl)cccc2Cl)nc2c3cc(-c4cnn(C5CCOCC5)c4)cnc3ccn12` [Example 35, 2-(2,6-Dichlorophenyl)-9-(1-(tetrahydro-2H-pyran-4-yl)-1H-pyrazol-4-yl)imidazo[2,1-f][1,6]naphthyridin-3-amine]: the IC50 was 1 to 5 nM in test [1] and 10 to 50 nM in test [2].
